Columns and labels:
MDA-MB-231 cells [1] = test: Annexin V staining and FACS analysis of apoptosis; assay type: cell-based, human
Method: To investigate whether inhibition of CaMK-III sensitizes drug (doxorubicin)-resistant MCF7/DoxR and MDA-MB-231 cells to chemotherapy, cells were treated with either CaMK-III (50 nM) or control siRNA (50 nM) for 24 hours and then with doxorubicin (ED50 dose) for 48 hours. The ED50 of doxorubicin was determined from a dose-escalation study in a proliferation assay. […] To determine the percent of cells undergoing apoptosis in response to doxorubicin alone and in combination with CaMK-III siRNA was detected by Annexin V staining and FACS analysis.
(§1) Apoptosis was assessed by an Annexin V assay, monitoring PARP and caspase 9 cleavage by Western blot. To provide a comparative assay of apoptosis by Annexin V labeling, tumor cells (1×10^6) treated with CaMK-III siRNA or control siRNA for 24 to 96 hours were harvested and washed with PBS. Cells were resuspended in binding buffer and stained with Annexin V and propidium iodide (PI) according to the manufacturer's protocol (BD Pharmingen Annexin V kit, San Diego, Calif.). Positive cells were detected and quantified by FACS analysis.

MDA-MB-231 cells [2] = test: Clonogenic survival assay; assay type: cell-based, human; settings: paclitaxel 2 nM + CaMK-III siRNA
Method: (§2) To study the effect of CaMK-III growth of ER(−) and ER(+) breast cancer cells we performed a clonogenic assay, which is based on the ability of a single cell to grow into a colony (Franken N A, et al. Nat Protoc 2006: 1:2315-9), using MDA-MB-231 and MCF-7 cells, respectively. Cells were transfected with either CaMK-III or control siRNA (50 nM) […] over a period of two weeks.
(§3) This assay is an in vitro cell survival assay based on the ability of a single cell to grow into a colony. Briefly, cells (500 cells/well) were transfected with control siRNA or CaMK-III siRNA every week and grown for 2 to 3 weeks. Cells were stained with crystal violet and colonies were counted. Each experiment was repeated twice.
This assay is an in vitro cell survival assay based on the ability of a single cell to grow into a colony. Briefly, cells (500 cells/well) were transfected with different siRNA as described above and at 48 h post-transfection, cells were trypsinized and seeded into 6-well plates in the medium (500 cells/mL). Cells were transfected with control siRNA or CaMK-III siRNA every week and grown for 2 to 3 weeks. Cells were stained with crystal violet and colonies cells were counted. Each group was assayed in triplicate dishes, and each experiment was repeated twice.

[3] = system: 5-HT1B or 5-HT1D receptor; test: Effect on cell proliferation after siRNA knockdown of 5-HT1B or 5-HT1D receptor; assay type: cell-based
5-HT1B/1D receptor = test: cAMP levels; assay type: cell-based
breast cancer cells = test: Cell viability assay, breast cancer cell panel or cell line not stated; assay type: cell-based, human
Excerpt: (§4) (aka proliferation assay, in this case MTS assay was used. MTS, MTT, XTT all similar assays often used as cell viability/toxicity assay). Cell viability in response to compounds such as 5NT and KD06 was studied with a tetrazolium/formazan based assay (MTS, Celltiter 96 aqueous one solution cell proliferation assay, Promega, WI) [Akar U, Chaves-Reyez A, Barria g Tari A, Sanguino A, Kondo Y, Kondo S, Arun B, Lopez-Berestein G, Ozpolat B: Silencing of Bcl-2 expression by small interfering RNA induces autophagic cell death in MCF-7 breast cancer cells. Autophagy 2008, 4:669-679, Ozpolat 2007 MCR]. Cells were seeded in 96 wells plates at a density of 1.5 to 3.0×10^3 cells per well in 100 μl of medium. Next day the medium was removed and cells were treated with the drug in 100 μl of medium for 72 hours. Plates were read at 490 nm wavelength in an Elisa plate reader (Kinetic Microplate Reader, Molecular Devices Corporation, Sunnyvale, Calif.).

MCF10A = test: MTS cell viability assay on normal breast epithelium; assay type: cell-based, human; settings: at IC50 to IC90 doses in breast cancer cells (MCF7)
Excerpt: as §4

[4] = system: ER+ MCF-7 breast cancer cells; test: Cell proliferation on serotonin treatment (cell counting); assay type: cell-based, human
MCF7/Dox resistant cells = test: MTS cell viability/proliferation assay; assay type: cell-based, human; settings: MTS assay
Excerpt: (§5) Viable and dead cells were detected by the trypan blue exclusion assay, where viable cells (non-stained) with intact membrane are able to exclude the dye, while dead cells take up the coloring blue agent from the media. To quantitatively assess the viability and/or proliferation of cells a MTS assay was used, which incorporates a redox indicator that changes color in response to metabolic activity. To study cell viability in response to CaMK-III siRNA or control siRNA and plasmid encoding CaMK-III or empty plasmid transfection cells were seeded in 96-well plates at a density of 3×10^3 cells per well in 100 μl of medium. Next day the medium was removed and cells were transfected with siRNA at different concentrations in 100 μl of medium plus transfection mix. Two days after transfection, the medium was removed and replaced by 180 μl of medium plus 20 μl of MTS and the cells were incubated under normal conditions until the color changed. Plates were read at dual wavelengths (570-595 nm) in an Elisa plate reader (Kinetic Microplate Reader, Molecular Devices Corporation, Sunnyvale, Calif.).
as §4

MCF7 cells = test: MTS cell viability/proliferation assay; assay type: cell-based, human
Excerpt: as §5, §4

MCF7 and MDA-MB231 cells = test: Acridine orange autophagy assay with MEK inhibitor PD98059; assay type: cell-based, human
Method: (§6) To detect and quantify acidic vesicular organelles, we stained cells with acridine orange as described previously.^31 The number of acridine orange-positive cells was determined by fluorescence-activated cell sorting (FACS) analysis. Cell morphology was examined using fluorescence microscopy (Nikon, Melville, N.Y.) with the cells remaining in their culture flasks.

MCF-7 cells [5] = test: Clonogenic survival assay; assay type: cell-based, human; settings: various concentrations over two weeks, vs untreated
Method: as §2, §3
To study the effect of 5-HT1B on the survival and colony formation of breast cancer cells a clonogenic survival assay was performed using various concentrations of […] over a period of two weeks. This assay is based on the ability of a single cell to grow into a colony [Franken N A, et al. Nat Protoc 2006: 1:2315-2319]. […] Cell death and detachment as well as reduced cell number was observed.
This assay is an in vitro cell survival assay based on the ability of a single cell to grow into a colony. […] Cells were stained with crystal violet and colonies cells were counted. […]

[6] = mouse, in vivo
MCF7 breast cancer cells = test: Acridine orange staining of acidic vesicular organelles (autophagy), FACS; assay type: cell-based, human; settings: for percentage of acridine orange positive cells: flow cytometry, control untreated cells 2%
Excerpt: To determine the role of serotonin 5-HT1B receptor in cell survival and the mechanism of growth inhibition induced by HT1B inhibitors we investigated cell death in breast cancer cells. When 5-HT1B was inhibited by either SB224289 or SB216641 we detected marked induction of autophagy (FIG. 28A) as detected by acridine orange staining, apoptosis by Annexin V and necrosis by propidium iodide (PI) staining and FACS analysis (FIG. 28B) in MCF7 breast cancer cells. Induction of acidic vacuoles by acridine orange staining was also observed in MDA-MB231 cells after SB224289 treatment for 72 hours (p<0.05) (FIG. 28C).
as §6

MCF-7 cells [7] = test: Apoptosis / cell death in MCF-7 cells (Annexin V, FACS); assay type: cell-based, human; settings: Annexin V, MCF cells
Method: as §1

[8] = system: STAT3, Bcl-2 and PI3K/Akt pathways; test: Signaling pathways after SB-224289 in breast cancer cells; assay type: cell-based; settings: preliminary studies
MDA-MB-231 cells [9] = test: MTS cell viability/proliferation assay; assay type: cell-based, human; settings: MTS assay, MB-231
Excerpt: Viable and dead cells were detected by the trypan blue exclusion assay, the viability and/or proliferation of cells a MTS assay was used [Akar U, et al. Autophagy 2008: 4:669-79].
as §5, with “Two days after transfection, the medium was removed and replaced by 180 μl of medium plus 20 μl of MTS and the cells were incubated under normal conditions until the color changed.” left out
(aka proliferation assay, in this case MTS assay was used. MTS, MTT, XTT all similar assays often used as cell viability/toxicity assay). […] Plates were read at 490 nm wavelength in an Elisa plate reader (Kinetic Microplate Reader, Molecular Devices Corporation, Sunnyvale, Calif.).

ERK (p42/p44) and LC3-II = test: Western blot of p-ERK and LC3-II after 5-HT1B antagonists; assay type: cell-based, human; settings: for phosphorylation of ERK (p42/p44): Western blot
Method: After treatment the cells were trypsinized and collected by centrifugation, and whole-cell lysates were obtained using a lysis buffer as described previously [Akar U, et al. Mol Cancer Res 2007: 5:241-249]. Total protein concentration was determined using a DC protein assay kit (Bio-Rad, Hercules, Calif.). Aliquots containing […] of total protein from each sample were subjected to sodium dodecyl sulfate-polyacrylamide gel electrophoresis (SDS-PAGE) with a 4-20% gradient and electrotransferred to nitrocellulose membranes. The membranes were blocked with 5% dry milk in Tris-buffered saline-Tween 20 (TBST), probed with primary antibodies anti EREK1/2 or p-ERK1/2 (Cell signaling), polyclonal LC3 antibody (Novus biologicals, Littleton, Colo.). The antibodies were diluted in TBST containing 2.5% dry milk and incubated at 4 C overnight. After the membranes were washed with TBST, they were incubated with horseradish peroxidase-conjugated anti-rabbit or anti-mouse secondary antibody (Amersham Life Science, Cleveland, Ohio). Mouse anti-actin and donkey anti-mouse secondary antibodies (Sigma Chemical, St. Louis, Mo.) were used to monitor-actin expression to ensure equal loading of proteins. Chemiluminescent detection was performed with Chemi-glow detection reagents (Alpha Innotech, San Leandro, Calif.). The blots were visualized with a FluorChem 8900 imager and quantified by a densitometer using the Alpha Imager application program (Alpha Innotech, San Leandro, Calif.).

With `COc1cccc2c1C(=O)c1c(O)c3c(c(O)c1C2=O)C[C@@](O)(C(=O)CO)C[C@@H]3O[C@H]1C[C@H](N)[C@H](O)[C@H](C)O1` [doxorubicin] the “apoptosis induced by doxorubicin (Annexin V positive cells)” value (MDA-MB-231 cells [1]; doxorubicin alone, 48 h) was 5% and the “apoptosis induced by doxorubicin (Annexin V positive cells)” value (MDA-MB-231 cells [1]; doxorubicin with CaMK-III siRNA) was 55%.
For `CC(=O)O[C@H]1C(=O)[C@@]2(C)[C@H]([C@H](OC(=O)c3ccccc3)[C@]3(O)C[C@H](OC(=O)[C@H](O)[C@@H](NC(=O)c4ccccc4)c4ccccc4)C(C)=C1C3(C)C)[C@]1(OC(C)=O)CO[C@@H]1C[C@@H]2O` [paclitaxel], the “inhibition of colony formation by paclitaxel with CaMK-III siRNA” value (MDA-MB-231 cells [2]) was “enhances efficacy”.
For `CCCCCCCCCCCCOc1ccc2[nH]cc(CCN)c2c1.Cl` [KD06], the “effect of compound after knockdown of 5-HT1B or 5-HT1D receptor” value [3] was “blunts the effect”, the cAMP levels (5-HT1B/1D receptor) was “decrease cAMP levels” and the “potency relative to 5-NT” value (breast cancer cells) was “more potent than 5-NT”. The “cell survival (O.D.) in a large panel of breast cancer cells” value (breast cancer cells; incl. MDA-468, BT20, MDa-MB231, SKBR3, MDA-MB435, T47D, ZR75.1) was “effective against almost all breast cancer cell lines” and the “toxicity against normal breast epithelium” value (MCF10A) was “not toxic”.
With `NCCc1c[nH]c2ccc(O)cc12` [Serotonin, 5-hydroxytryptamine] the cell proliferation [4] was “induced proliferation”.
For `Cc1nc(-c2ccc(-c3ccc(C(=O)N4CCc5cc6c(cc54)C4(CCN(C)CC4)CO6)cc3)c(C)c2)no1` [SB224289], the “inhibition of cell proliferation” value (MCF7/Dox resistant cells) was “dose-dependent inhibition”, the EC50 (MCF7 cells; Homo sapiens, MCF7, MCF cells) was 4.4 µM and the “inhibition of cell proliferation” value (MCF7 cells; MTS assay) was “dose-dependent inhibition”. The cell viability (MCF7 cells; antagonist alone) was 42%, the cell viability (MCF7 cells; with 3-MA, p<0.05) was 61% and the “percent positive cells with autophagy” value (MCF7 and MDA-MB231 cells; antagonist alone) was 29.2%. For the same compound, the “percent positive cells with autophagy” value (MCF7 and MDA-MB231 cells; with ERK inhibitor (MEK inhibitor PD98059)) was 18%, the colony formation (MCF-7 cells [5]) was “grew more slowly and produced fewer colonies” and the toxicity in mice [6] was “quite toxic in mice”. The incidence of autophagy (MCF7 breast cancer cells; antagonist alone) was 22.4%, the “percentage of acridine orange positive cells” value (MCF7 breast cancer cells) was 23% and the incidence of autophagy (MCF7 breast cancer cells; with 3-MA) was 12%. For the same compound, the induction of apoptosis (MCF-7 cells [7]) was “induced apoptosis in a dose dependent manner”, the “STAT3, Bcl-2 and PI3K/Akt pathways” value [8] was “inhibits the STAT3 and Bcl-2 pathways, as well as the PI3K/Akt pathway” and the “inhibition of cell proliferation” value (MDA-MB-231 cells [9]) was “dose-dependent inhibition”. For the same compound, the “LC3-II, marker of autophagy” value (ERK (p42/p44) and LC3-II; MCF7 and MCF7/Dox-R cells) was “induction of LC3-II” and the “phosphorylation of ERK (p42/p44)” value (ERK (p42/p44) and LC3-II) was “induced phosphorylation of ERK (p42/p44)”.
With `COc1ccc(NC(=O)c2ccc(-c3ccc(-c4noc(C)n4)cc3C)cc2)cc1OCCN(C)C` [SB216641] the cell viability (MCF7 cells; antagonist alone) was 31%, the cell viability (MCF7 cells; with 3-MA, p<0.05) was 71% and the “percentage of acridine orange positive cells” value (MCF7 breast cancer cells) was 17%. For the same compound, the “phosphorylation of ERK (p42/p44)” value (ERK (p42/p44) and LC3-II) was “induced phosphorylation of ERK (p42/p44)”.
